Test results from US20200069668A1, “Therapeutic Combinations of an IRAK4 Inhibitor and a BTK Inhibitor” (Acerta Pharma B.V., priority 2015, published 2020).

Columns and labels:
[1] = GLP functional observation battery; assay type: in vivo; conditions: rats, doses through 300 mg/kg
Text: (§1) Formula (2) was well tolerated in standard in vivo Good Laboratory Practices (GLP) studies of pharmacologic safety.

[2] = test system: 80 known pharmacologic targets such as G-protein-coupled receptors, nuclear receptors, proteases, and ion channels; test: Binding assays with 80 known pharmacologic targets; conditions: screened at 10 μM
Text: as §1

[3] = test system: human platelet-mediated thrombosis; test: Laser-induced thrombus formation with human platelets in VWF HA1 mice; conditions: in vivo
Description: Injury to the vessel wall of arterioles ([…] diameter) was performed using a pulsed nitrogen dye laser (440 nm, Photonic Instruments) applied through a 20× water-immersion Olympus objective (LUMPlanF1, 0.5 numerical aperature (NA)) of a Zeiss Axiotech vario microscope. […] The extent of thrombus formation was assessed for 2 minutes after injury and the area (μm^2) of coverage determined (Image IQ, Andor Technology).
The BTK inhibitor-treated human platelets were fluorescently labeled and infused continuously through a catheter inserted into the femoral artery.

Th17 cells and Treg = test: Th17 and Treg development from CD4+ T cells; assay type: cell-based
Description: Enriched CD4^+ T cells are plated on 24-well culture dishes that have been precoated 2 hr with 250 μL anti-TCRβ (0.5 μg/mL) plus anti-CD28 (5 μg/mL) at 37° C. in PBS. The cells are then supplemented with media containing BTK inhibitors along with the skewing cytokines as indicated in the following. The Th17 and Treg cultures are grown for 4 days before analysis. The cells are maintained for an additional 3 days with skewing cytokines (Th17; 20 ng/mL IL-6, 0.5 ng/mL TGF-β, 5 μg/mL IL-4, 5 μg/mL IFN-γ and Treg; 0.5 ng/mL TGF-β, 5 μg/mL IL-4, […] IFN-γ) and are supplemented with IL2 as a growth factor.

[4] = Cardiovascular function study in awake telemeterized dogs; assay type: in vivo, male beagle dogs; conditions: single doses through 30 mg/kg
Text: as §1

[5] = In vitro metabolism in hepatocytes with 14C-labeled drug; assay type: in vitro ADME, and human; conditions: mouse, rat, dog, rabbit, monkey, human hepatocytes
CD8+ T cells = test: CD8+ T cell viability; assay type: cell-based; conditions: ibrutinib effect at higher doses
Description: Total T cells were plated on anti-TCR and anti-CD28 coated wells in the presence of both BTK inhibitors. Neutral culture conditions were used that will not polarize T cells to a helper lineage. […] Statistical significance was calculated using the Mann Whitney T-test.

ID8 ovarian cancer = test: ID8 syngeneic orthotropic ovarian cancer model; assay type: in vivo, mice; conditions: 15 mg/kg/BID orally
Text: Human ovarian cancer models, including the ID8 syngeneic orthotropic ovarian cancer model and other animal models, are described in Fong and Kakar, J. Ovarian Res. 2009, 2, 12; Greenaway, et al., Gynecol. Oncol. 2008, 108, 385-94; Urzua, et al., Tumour Biol. 2005, 26, 236-44; Janat-Amsbury, et al., Anticancer Res. 2006, 26, 3223-28; Janat-Amsbury, et al., Anticancer Res. 2006, 26, 2785-89. […] The results of the study are shown in FIG. 4, FIG. 5, FIG. 6, FIG. 7, FIG. 8, FIG. 9, FIG. 10, and FIG. 11.

NK cells (CD56+/CD107a+) = test: Whole blood NK cell degranulation with obinutuzumab-opsonised MEC-1 cells; assay type: cell-based, human; conditions: 1 h pretreatment, obinutuzumab 1 μg/mL, 4 h
Description: Degranulation in whole blood was performed as follows. […] Exponentially growing cells were used. […] A white blood cell (WBC) count of whole blood was performed. […] The ibrutinib control and two blinded BTK inhibitors were diluted in X-VIVO 15 serum-free hematopoietic cell medium (Lonza Group, Ltd.) to concentrations of 200 μM, 20 M and 2 μM. 170 μL aliquots of unmanipulated whole blood were incubated with 10 μL BTK inhibitors or X-VIVO 15 medium for one hour into a plate. […] The samples were placed in a 5% CO2 incubator for 4 hours at 37° C.
After 4 hours, the samples were mixed gently and 50 μL aliquots were removed from each well and placed in fluorescence-activated cell sorting (FACS) test tubes. A 20 μL aliquot of anti-CD56-APC antibody and anti-CD107a-PE antibody was added. The samples were incubated for 20 minutes at room temperature in the dark. An aliquot of 2 mL of FACS lysing solution (BD Biosceinces) was added. The samples were again incubated for 5 minutes, and then centrifuged at 2000 rpm for 5 minutes. Supernatant was discarded and the cell pellet was resuspended in 500 μL of PBS. The samples were analyzed on the flow cytometer for CD107a^+ NK cells (CD56^+).

relapsed/refractory CLL = test: Clinical study in relapsed/refractory CLL: efficacy; assay type: in vivo, human; conditions: Kaplan-Meier, p-value 0.0206
Description: This study is a multicenter, open-label, nonrandomized, sequential group, dose escalation study. The following dose cohorts will be evaluated:
The investigator rates the subject's response to treatment based on recent guidelines for CLL, as given in Hallek, et al., Blood 2008, 111, 5446-56, and for SLL, as given in Cheson, et al., J. Clin. Oncol. 2007, 25, 579-586.
The analysis of efficacy parameters was performed as follows. The point estimate of the overall response rate will be calculated for the PP analysis set. The corresponding 95% confidence interval also will be derived. The duration of overall response is measured from the time measurement criteria are met for CR or PR (whichever is first recorded) until the first date that recurrent or progressive disease is objectively documented (taking as reference for progressive disease the smallest measurements recorded since the treatment started). […] Progression-free survival is measured from the time of first study drug administration until the first date that recurrent or progressive disease is objectively documented (taking as reference for progressive disease the smallest measurements recorded since the treatment started). […]
The study scheme is a seqential cohort escalation. […] The dose level for Cohort 6 will be determined based on the safety and efficacy of Cohorts 1 to 5, and will not exceed 900 mg/day. […]

NSCLC (KrasLA2) = test: KrasLA2 NSCLC genetic tumor model; assay type: in vivo, mice; conditions: 15 mg/kg
Text: The model is designed to have sporadic expression in single cells of G12D mutant Kras off its own promoter triggered by spontaneous intrachromosomal recombination. Johnson, et al. Nature 2001, 410, 1111-16. While the mutant Kras protein is expressed in a few cells in all tissues, tumor development is seen only in the lung at high penetrance.

CD8+ T cell function = test: Cytotoxic T cell (CTL) assay; assay type: cell-based; conditions: relative to vehicle; for CD8+ T cell function as % cytotoxicity: 500 nM
Description: Without being bound by any theory, CD8^+ T cells have two primary effector functions: (1) produce large amounts of IFN-γ (which activates macrophages), and (2) cytolytic activity. […] The targets were B lymphoblasts from lipopolysaccharide (LPS) treated cultures. The assay was performed by incubating different ratios of effectors:targets for 4 hours.

[6] = test system: GPVI platelet aggregation; test: GPVI (convulxin) platelet aggregation; assay type: cell-based, human
BTK = molecular target: T1, BTK (Mus musculus, UniProt P35991); test: Molecular probe assay of BTK occupancy in MDSCs of tumor bearing PDA mice; assay type: in vivo; conditions: 15 mg/kg BID, Day 8, 4 hours post dose
T1 construct: endogenous in cells; host or cells: granulocytic and monocytic MDSCs from tumour-bearing PDA (KPC) mice dosed in vivo
Text: A molecular probe assay was used to calculate the percent irreversible occupancy of total BTK.

[7] = test system: BCR activation markers CD69 and CD86; test: In vivo potency: BCR activation markers after gavage; conditions: mice, 3 hours post-dose, IgM stimulation, compared with Formula (10)
Description: Mice were gavaged at increasing drug concentration and sacrificed at one time point (3 hours post-dose). BCR is stimulated with IgM and the expression of activation markers CD69 and CD86 are monitored by flow cytometry to determine EC50 values.
CD86 and CD69 are cell surface proteins that are BCR activation markers. […] BCR was stimulated with IgM and the expression of activation marker CD69 and CD86 are monitored by flow cytometry to determine EC50 values.

Raji cells = test: Rituximab ADCC chromium release assay, Raji targets; assay type: cell-based, human; conditions: 1 μM, healthy donor NK cells
Description: All in vitro experiments were performed in triplicate.
ADCC assays were performed as follows. Briefly, target cells (Raji or primary CLL) were labeled by incubation at 37° C. with 100 μCi ^51Cr for 4 hours prior to co-culture with NK cells. Cells were washed, enumerated, and then added in triplicate to prepared 96-well plates containing treated NK cells at an effector:target (E:T) ratio of 25:1. […] Cultures were incubated at 37° C. for 4 hours, and then centrifuged. Supernatants were harvested and ^51Cr release was measured by liquid scintillation counting. All experiments were performed in triplicate.

[8] = monotherapy, dose levels through 840 mg; cited from earlier work

T1 sequence (P35991 whole entry): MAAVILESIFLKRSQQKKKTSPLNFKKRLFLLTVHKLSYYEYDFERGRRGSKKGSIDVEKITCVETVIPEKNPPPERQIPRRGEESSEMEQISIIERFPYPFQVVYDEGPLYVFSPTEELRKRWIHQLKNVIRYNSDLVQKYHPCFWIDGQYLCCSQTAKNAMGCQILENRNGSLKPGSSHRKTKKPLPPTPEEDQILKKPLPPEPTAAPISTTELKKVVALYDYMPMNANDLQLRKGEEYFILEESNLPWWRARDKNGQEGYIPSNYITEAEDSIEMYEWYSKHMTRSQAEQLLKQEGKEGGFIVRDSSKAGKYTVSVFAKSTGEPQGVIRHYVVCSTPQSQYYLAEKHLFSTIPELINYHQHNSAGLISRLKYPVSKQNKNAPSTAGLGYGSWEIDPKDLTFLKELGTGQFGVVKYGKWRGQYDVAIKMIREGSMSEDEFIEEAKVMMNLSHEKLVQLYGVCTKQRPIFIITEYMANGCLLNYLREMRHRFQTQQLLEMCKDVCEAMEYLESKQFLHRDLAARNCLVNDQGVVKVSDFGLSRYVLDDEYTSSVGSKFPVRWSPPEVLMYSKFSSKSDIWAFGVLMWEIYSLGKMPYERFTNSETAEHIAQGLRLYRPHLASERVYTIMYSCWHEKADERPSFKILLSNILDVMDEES

## CC#CC(=O)N1CCC[C@H]1c1nc(-c2ccc(C(=O)Nc3ccccn3)cc2)c2c(N)nccn12 [Formula (2)]
[1]
  neurobehavioral effects and body temperature: no adverse effects
[2]
  activity in binding assays with 80 pharmacologic targets: significant activity only against the A3 adenosine receptor
[3]
  effect on human platelet-mediated thrombus formation: no significant effect
Th17 cells and Treg
  effect on T helper 17 (Th17) cells: no adverse effect
  effect on regulatory T cell (Treg) development: no effect
[4]
  body temperature, cardiovascular and ECG (including QT interval) parameters: no meaningful changes
[5]
  metabolites found in hepatocytes: two mono-oxidized metabolites and a glutathione conjugate
CD8+ T cells
  effect on CD8+ T cell viability: no effect
ID8 ovarian cancer
  CD8+ T cells: increase
ID8 ovarian cancer; tumor-bearing mice
  immunosuppressive B cells, including Bregs: significant reduction
NK cells (CD56+/CD107a+)
  reduction of obinutuzumab-stimulated NK degranulation: minimal effect
relapsed/refractory CLL
  progression-free survival versus ibrutinib-treated patients: improvement in survival
  dose-limiting toxicities (DLTs): No DLTs
  grade of adverse events observed: only grade 1 AEs
  lymphocytosis: lack of lymphocytosis
  treatment-related serious adverse events (SAEs): No treatment-related serious adverse events
Grade 1/2, All (N = 44)
  treatment-related adverse event: Headache: 7 (16) n (%)
Grade 1, All (N = 44)
  treatment-related adverse event: Diarrhea: 4 (9) n (%)
  treatment-related adverse event: Increased tendency to bruise: 6 (14) n (%)
  treatment-related adverse event: Petechiae: 3 (7) n (%)
NSCLC (KrasLA2)
  tumor volumes versus vehicle: significant decrease
CD8+ T cell function
  CD8+ T cell function as % cytotoxicity: no effect
  CD8+ T cell function as IFN-γ level: no effect
[6]
  effect on GPVI platelet aggregation: does not
BTK
  irreversible BTK occupancy in granulocytic and monocytic MDSCs: Complete BTK occupancy
[7]
  in vivo potency at inhibiting expression of activation markers CD69 and CD86: more potent

## C=CC(=O)N1CCC[C@@H](n2nc(-c3ccc(Oc4ccccc4)cc3)c3c(N)ncnc32)C1 [Formula (10), reference compound]
Raji cells
  effect on antibody-dependent lysis of rituximab-coated Raji cells: strongly inhibited
Th17 cells and Treg
  effect on T helper 17 (Th17) cells: strongly inhibits
  effect on regulatory T cell (Treg) development: strongly increases
CD8+ T cells
  effect on CD8+ T cell viability: strongly affects
CD8+ T cell function
  CD8+ T cell function as % cytotoxicity: affects
  CD8+ T cell function as IFN-γ level: affects
[6]
  effect on GPVI platelet aggregation: significantly inhibits
[8]
  maximum tolerated dose: No maximum tolerated dose (MTD) was apparent
